# From article PMC5686179, “Phage display and selection of lanthipeptides on the carboxy-terminus of the gene-3 minor coat protein” (Nature Communications, 2017)
# Ends that are not written are not given here.
# Tests used:
# human uPA = biological target: T1, human uPA (Homo sapiens, UniProt P00749); test: Inhibition of uPA catalytic activity, fluorogenic substrate; type: biochemical; conditions: PEP333 leader-core peptide, ProcM-modified; 1.5 nM human uPA; 50 µM Z-Gly-Gly-Arg 7-amido-4-methylcoumarin; 10 mM Tris-HCl pH 7.4, 5% DMSO; 25°C, 30 min; fluorescence 355/460 nm; experiment repeated three times; read-out: inhibitory constant Ki
# T1 construct: purchased ProsPec enz-264-c
# Experimental: Determination of inhibitory activit y of lanthipeptides
# The inhibitory activities of ProcM-modified and non- modified anti-uPA peptides were determined as previously described2. In brief, 1.5 nM human uPA (ProsPec, # enz-264- c; purified by size exclusion chromatography) were incubated with 50 µM of the fluorogenic substrate Z-Gly-Gly-Arg 7 -am ido-4-methylcoumarin hydrochloride (Santa Cruz Biotechnology, # sc-208012) and different concentrations of anti-uPA peptides. Substrate and peptides were diluted in 10 mM Tris-HCl (pH 7.4), 150 mM NaCl, 10 mM MgCl2, 1 m M CaCl2, 0.1% (w v-1) BSA, 0.01% Triton X-100, 5% (v v-1) DMSO buff er. The uPA activity was measured by monitoring the change in fluorescence intensity after an incubation step at 25°C for 30 minutes (black 96 well plate with clear flat bottom, Corning CellBIND, # 3340; excitation at 355 nm, emission recorded at 460 nm, Tecan M200pro, […]). A […]
# Anal ysis of phage-selected peptides by mass spectrometry
# Samples were analyzed by FTMS using a Shimadzu UFLC system (Shimadzu, Den Bosch, The Netherlands) coupled on- line via the HESI interface with a LTQ–Orbitrap- XL mass spectrometer (Thermo Fisher Scientific., San Jose, CA). Samples were loaded onto an Acquity UPLC, BEH C18. 50 x 2.1mm, 1.7µM (Waters, Ireland). […]
# streptavidin = test: ELISA for streptavidin binding of purified His6-tagged leader-core peptides; conditions: plates coated with 100 nM streptavidin; for streptavidin binding, effect of reducing conditions: 10 mM DTT vs non-reducing; for streptavidin binding, dependence on ProcM co-expression: peptide produced with or without ProcM, 1 h room temperature, anti-His detection
# Experimental: Peptide candidates identified by phage display were produced and purified as leader-core peptides as described above. 384 well Maxisorp plates were coated with uPA or streptavidin (100 nM each) overnight at 4 °C. After washing and blocking the plates as described above, serial dilutions of the peptide preparations in PBST containing 0.5% (w v^−1) BSA (and 10 mM DTT for anti-streptavidin replicates) were added in duplicate, and plates incubated for 1 h at room temperature, shaking. Detection of bound peptides with AP-conjugated anti-His IgG was performed as described above.
# [1] = system: nisin-sensitive L. lactis NZ9000; test: Growth inhibition, filter-disc bioactivity assay (nisin); type: cell-based; conditions: NisA produced as C-terminal MBP fusion in E. coli with NisBC; 20 µM leader-core peptide, trypsin treated; 40 µl on filter disc
# Text: (§1) MBP IEGR His6 leader core peptide
# (§2) LctA-core […] NisA-core […]
# (§3) ProcM enz yme NisBC enzymes […]
# (§4) modified KGGSGVIHAbuIAHEANMNAWQFVFDhbAAS modified IDhbAIDhaLAAbuPGAKAbuGALMGANMKAbuAAbuAHASIHVDhaK […]
# (§5) 1: PBS + trypsin 1: PBS + trypsin
# (§6) 2: Authentic lacticin 481 2: Authentic Nisin
# (§7) 3: MBP_His6_P roc A 3. 3-LctA + trypsin 3: MBP_His6_NisA + trypsin
# (§8) 4: MBP_His6_P roc A 3. 3-Lc tA + ProcM + trypsin 4: MBP_His6_NisA + NisBC + trypsin
# (§9) Supplementary Figure 3 Bioactivit y assay of lanthipeptides produced as C-term inal fusions to MBP.
# (§10) (a) Schem atic drawing of the MBP-fusion vector used for expression of a chim eric peptide consisting of the ProcA3.3 leader sequence fused to the core of LctA (left panel) and NisA (right panel; full sequences shown in Supplem entary Table 5). The sequence of the unm odified and m odified core peptides as reported in the literature are indicated1. The arrow indicates a tr ypsin cleavage site used to release the m ature core peptide. (b) Growth inhibition of lacticin 481- sensitive L. lactis cremonis (HP) by filter- disc spotted peptide solutions. (1) Trypsin treated PBS (negative control); (2) authentic lacticin 481 (positive control); (3) ProcA3.3-LctA produced as C-term inal MBP fusion in E. coli without ProcM co- expression and treated with tr yps in; (4) ProcA3.3- LctA produced as C-term inal MBP fusion in E. coli with ProcM co-ex pression and treated with tr ypsin. […]
# [2] = system: lacticin 481-sensitive L. lactis cremonis (HP); test: Growth inhibition, filter-disc bioactivity assay (lacticin 481); type: cell-based, L. lactis subsp. cremonis (HP); conditions: ProcA3.3-LctA produced as C-terminal MBP fusion in E. coli with ProcM; 20 µM leader-core peptide, trypsin treated; 40 µl on filter disc
# Text: as §1, §2, §3, §4, §5, §6, §7, §8, §9, §10
Substance,"streptavidin binding, effect of reducing conditions (streptavidin)","streptavidin binding, dependence on ProcM co-expression (streptavidin)",further results
AICQIADATRTGENRKCLAAGPHHHHHH (also: sidechain bridge or staple (positions not given here)) [PEP333],,,Ki (human uPA): 564 nM
ANCIQHLTHSPTVHKYFCPAAGPHHHHHH (also: bicyclic or more (positions not given here)) [PEP331],only a slight reduction in binding was noticed in a reducing environment,strictly dependent on post-translational modifications introduced by ProcM,
"IDhbAIDhaLAAbuPGAKAbuGALMGANMKAbuAAbuAHASIHVDhaK (bicyclic or more) [nisin, antimicrobial lantibiotic, expressed as C-terminal MBP fusion with NisBC]",,,antimicrobial activity [1]: confirmed their antimicrobial activity
KGGSGVIHAbuIAHEANMNAWQFVFDhbAAS (bicyclic or more) [lacticin 481],,,antimicrobial activity [2]: confirmed their antimicrobial activity
TNCGRKMSATYSGQKMYCIAAGPHHHHHH (also: bicyclic or more (positions not given here)) [PEP330],reducing conditions had only minor effects,bound streptavidin regardless of ProcM co-expression,
